In general, IC50 refers to the concentration that inhibits the measured activity by half.

SMILES strings stand for the structures.
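Note: primary rat embryonic cortical neurons grown on an astrocyte layer in 96-well plates, used after at least 8 to 10 days in culture, Fura2-AM fluorescence ratio at 340/380 nm excitation.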

The first experiment deals with AMPA receptor. The conditions noted are these: Table 2; suppression of AMPA-induced calcium influx into nerve cells.
Protocol: Cerebral cortex was cut out from the brain of rat of gestational 18 days and treated with trypsin and DNase to disperse the cells. The cells were flown by MEM containing 10% of serum, sown in a culture bottle and astrocytes were proliferated. The astrocytes were re-dispersed by trypsin and sown in a 96-well plate. After incubation for one week, it was confirmed that the astrocytes covered all over the bottom and then the nerve cells of cerebral cortex which was dispersed by the above method were sown thereupon. After incubation for 24 hours, the medium was changed, the incubation was carried out for one week and, after that, the medium was changed to that containing 1 μM of MK-801. Nerve cells which were incubated for not shorter than 8 to 10 days were used.
Calcium influx into the cells was measured using Fura2-AM which was a calcium-sensitive fluorescent dye. It was treated in a medium containing Fura2-AM for 1 hour, incorporated into the cells, exchanged to a Tyrode solution containing 1 μM MK-801 and stimulation was carried out using 2 μM AMPA. Change in the amount of calcium flown into the cells were measured as the change in the fluorescent intensity at the exciting wave length of 340/380 nm.
Regarding `N#Cc1ncccc1-c1cc(-c2ccccn2)cn(-c2cccnc2)c1=O` [Example 294, 3-(2-Cyanopyridin-3-yl)-5-(2-pyridyl)-1-(3-pyridyl)-1,2-dihydropyridin-2-one], the IC50 was 600 nM. In the case of `Cc1ccc(C)n1-c1cccc(-c2cc(-c3ccccc3C#N)c(=O)n(-c3ccccc3)c2)n1` [Example 297, 3-(2-Cyanophenyl)-5-[2-(2,6-dimethylpvrrol-1-yl)pyridin-6-yl]-1-phenyl-1,2-dihydropyridin-2-one], the IC50 was 4200 nM. Consider `N#Cc1ccccc1-c1cc(-c2ccc([N+](=O)[O-])cn2)cn(-c2ccccc2)c1=O` [Example 299, 3-(2-Cyanophenyl)-5-(5-nitropyridin-2-yl)-1-phenyl-1,2-dihydropyridin-2-one], for which the IC50 was 4400 nM. For `N#Cc1ccccc1-c1cc(-c2cccc(Br)n2)cn(-c2ccccc2)c1=O` [Example 300, 5-(2-Bromopyridin-6-yl)-3-(2-cyanophenyl)-1-phenyl-1,2-dihydropyridin-2-one], the IC50 was 300 nM.

The same experiment, now with this note: Table 3; primary culture of rat embryo cerebral cortex nerve cells, 2 μM AMPA, 1 μM MK-801.
Turning to `N#Cc1ccccc1-c1cc(-c2cccc(N3CCOCC3)n2)cn(-c2ccccc2)c1=O` [Example 302, 3-(2-Cyanophenyl)-5-(2-morpholinopyridin-6-yl)-1-phenyl-1,2-dihydropyridin-2-one], the IC50 stood at 300 nM. Molecule `COC(=O)c1cccc(-c2cc(-c3ccccc3C#N)c(=O)n(-c3ccccc3)c2)n1` [Example 303, 3-(2-Cyanophenyl)-5-(2-methoxycarbonylpyridin-6-yl)-1-phenyl-1,2-dihydropyridin-2-one] came in with an IC50 of 900 nM. `N#Cc1ccccc1-c1cc(NC(=O)Nc2ccccc2)cn(-c2ccccc2)c1=O` [Example 307, 3-(2-Cyanophenyl)-1-phenyl-5-[N-(N′-phenylureylenyl)]-1,2-dihydropyridin-2-one]: the IC50 amounted to 2000 nM. Regarding `CCCCNC(=O)Nc1ccc(-c2cc(-c3ccccn3)cn(-c3ccccc3)c2=O)cc1` [Example 308, 3-{4[N-(N′-butylureylenyl)phenyl]}-1-phenyl-5-(2-pyridyl)-1,2-dihydropyridin-2-one], 1600 nM corresponded to half-maximal inhibition (IC50).

Turning to `N#Cc1ccccc1-c1cc(NC(=O)c2ccccn2)cn(-c2ccccc2)c1=O` [Example 309, 3-(2-Cyanophenyl)-1-phenyl-5-(2-pyridincarbonyl)amino-1,2-dihydropyridin-2-one], the concentration for half-maximal inhibition (IC50) is 4100 nM. For `N#Cc1ccccc1-c1cc(NCc2ccccc2)cn(-c2ccccc2)c1=O` [Example 313, 5-Benzylamino-3-(2-cyanophenyl)-1-phenyl-1,2-dihydropyridin-2-one], it took 5900 nM to reach half-maximal inhibition (IC50). In the case of `O=c1c(N(Cc2ccccc2)Cc2ccccc2)cc(-c2ccccn2)cn1-c1ccccc1` [Example 314, 3-Dibenzylamino-1-phenyl-5-(2-pyridyl)-1,2-dihydropyridin-2-one], the midpoint of inhibition, the IC50, lay at 4600 nM. Molecule `N#Cc1ccccc1-c1cc(-c2ccccn2)cn(-c2cccc(O)c2)c1=O` [Example 315, 3-(2-Cyanophenyl)-1-(3-hydroxyphenyl)-5-(2-pyridyl)-1,2-dihydropyridin-2-one] yielded an IC50 of 80 nM. `N#Cc1ccccc1-c1cc(-c2ccccn2)cn(COCc2ccccc2)c1=O` [Example 316, 1-Benzyloxymethyl-3-(2-cyanophenyl)-5-(2-pyridyl)-1,2-dihydropyridin-2-one]: the IC50 was 2100 nM. `N#Cc1ccccc1-c1cc(-c2ccccn2)cn(CC2CCCC2)c1=O` [Example 317, 3-(2-Cyanophenyl)-1-cyclopentylmethyl-5-(2-pyridyl)-1,2-dihydropyridin-2-one] had an IC50 of 600 nM. `CC(C)(C)OC(=O)N1CCC(Cn2cc(-c3ccccn3)cc(-c3ccccc3C#N)c2=O)CC1` [Example 318, 1-[1-(tert-butoxycarbonyl)piperidin-4-yl]methyl-3-(2-cyanophenyl)-5-(2-pyridyl)-1,2-dihydropyridin-2-one]: the IC50 came to 3100 nM. Regarding `N#Cc1ccccc1-c1cc(-c2ccccn2)cn(CC2CCN(C(=O)OCc3ccccc3)CC2)c1=O` [Example 319, 1-[1-(Benzyloxycarbonyl)piperidin-4-yl]methyl-3-(2-cyanophenyl)-5-(2-pyridyl)-1,2-dihydropyridin-2-one], the midpoint of inhibition, the IC50, lay at 2000 nM. `O=c1c(-n2cccc2)cc(-c2ccccn2)cn1-c1ccccc1` [Example 320, 3-(Pyrrol-1-yl)-5-(2-pyridyl)-1-phenyl-1,2-dihydropyridin-2-one]: the IC50 amounted to 2300 nM. Molecule `N#Cc1ccccc1Nc1cc(-c2ccccn2)cn(-c2ccccc2)c1=O` [Example 321, 3-(2-Cyanophenylamino)-5-(2-pyridyl)-1-phenyl-1,2-dihydropyridin-2-one] came in with an IC50 of 4000 nM. Regarding `O=c1c(-n2ccc3ccccc32)cc(-c2ccccn2)cn1-c1ccccc1` [Example 326, 3-(Indol-1-yl)-5-(2-pyridyl)-1-phenyl-1,2-dihydropyridin-2-one], the midpoint of inhibition, the IC50, lay at 900 nM. As for `Cc1ccc(-c2ccccc2)n1-c1cc(-c2ccccn2)cn(-c2ccccc2)c1=O` [Example 327, 3-(2-Methyl-5-phenylpyrrol-1-yl)-5-(2-pyridyl)-1-phenyl-1,2-dihydropyridin-2-one], the IC50 amounted to 8000 nM.

The molecule `N#Cc1ccccc1-c1cc(-c2ccccn2)cn(-c2cccc(OC3CCNCC3)c2)c1=O` [Example 330, 3-(2-Cyanophenyl)-1-[3-(4-piperidyloxy)]phenyl-5-(2-pyridyl)-1,2-dihydropyridin-2-one] had an IC50 of 400 nM. Same read-out and setting: with `CC(=O)N1CCC(Oc2cccc(-n3cc(-c4ccccn4)cc(-c4ccccc4C#N)c3=O)c2)CC1` [Example 333, 1-[3-(N-acetylpiperidin-4-yl-oxy)phenyl]-3-(2-cyanophenyl)-5-(2-pyridyl)-1,2-dihydropyridin-2-one] the figure was 300 nM; with `N#Cc1ccccc1-c1cc(-c2ccccn2)cn(-c2cccc(OC3CCN(C(=O)c4ccccc4)CC3)c2)c1=O` [Example 334, 1-[3-(N-benzoylpiperidin-4-yl-oxy)phenyl]-3-(2-cyanophenyl)-5-(2-pyridyl)-1,2-dihydropyridin-2-one], 600 nM. On the same count and under the same terms, for `N#Cc1ccccc1-c1cc(-c2ccccn2)cn(-c2cccc(OC3CCN(S(=O)(=O)c4ccccc4)CC3)c2)c1=O` [Example 337, 1-{3-[1-(Benzenesulfonyl)piperidin-4-yl-oxy]phenyl}-3-(2-cyanophenyl)-5-(2-pyridyl)-1,2-dihydropyridin-2-one] the value was 700 nM; for `CS(=O)(=O)N1CCC(Oc2cccc(-n3cc(-c4ccccn4)cc(-c4ccccc4C#N)c3=O)c2)CC1` [Example 338, 3-(2-Cyanophenyl)-1-{3-[1-(methanesulfonyl)piperidin-4-yl-oxy]phenyl}-5-(2-pyridyl)-1,2-dihydropyridin-2-one], 400 nM; for `CN1CCC(Oc2cccc(-n3cc(-c4ccccn4)cc(-c4ccccc4C#N)c3=O)c2)CC1` [Example 341, 1-[3-(N-methylpiperidin-4-yl-oxy)phenyl]-3-(2-cyanophenyl)-5-(2-pyridyl)-1,2-dihydropyridin-2-one], 200 nM. The molecule `O=C(NC1CCCCC1)c1cc(-c2ccccn2)cn(-c2ccccc2)c1=O` [Example 344, 3-Cyclohexylaminocarbonyl-5-(2-pyridyl)-1-phenyl-1,2-dihydropyridin-2-one] showed an IC50 of 4700 nM. Molecule `O=C(NC12CC3CC(CC(C3)C1)C2)c1cc(-c2ccccn2)cn(-c2ccccc2)c1=O` [Example 346, 3-(1-Adamantylaminocarbonyl)-5-(2-pyridyl)-1-phenyl-1,2-dihydropyridin-2-one] came in with an IC50 of 3700 nM. Still for that read-out and setting: with `Cc1ccc2[nH]c(-c3cc(-c4ccccc4C#N)c(=O)n(-c4ccccc4)c3)nc2c1` [Example 351, 3-(2-Cyanophenyl)-5-(5-methyl-1H-benzimidazol-2-yl)-1-phenyl-1,2-dihydropyridin-2-one] the figure was 3300 nM. Still for that read-out and setting: for `Cc1cccc2[nH]c(-c3cc(-c4ccccc4C#N)c(=O)n(-c4ccccc4)c3)nc12` [Example 352, 3-(2-Cyanophenyl)-5-(4-methyl-1H-benzimidazol-2-yl)-1-phenyl-1,2-dihydropyridin-2-one] the value was 1600 nM; for `O=c1c(-c2nc3cc(Cl)c(Cl)cc3[nH]2)cc(-c2ccccn2)cn1-c1ccccc1` [Example 354, 3-(5.6-Dichloro-1H-benzimidazol-2-yl)-5-(2-pyridyl)-1-phenyl-1,2-dihydropyridin-2-one], 1500 nM. Take `O=c1c(-c2nc3ccc(Cl)cc3[nH]2)cc(-c2ccccn2)cn1-c1ccccc1` [Example 355, 3-(6-Chloro-1H-benzimidazol-2-yl)-5-(2-pyridyl)-1-phenyl-1,2-dihydropyridin-2-one]: the IC50 worked out at 200 nM. `O=c1c(-c2nc3ccccc3n2-c2ccncc2)cc(-c2ccccn2)cn1-c1ccccc1` [Example 356, 3-[1-(Pyridin-4-yl)benzimidazol-2-yl]-5-(2-pyridyl)-1-phenyl-1,2-dihydropyridin-2-one] gave an IC50 of 2100 nM. For `N#Cc1ccccc1-c1cc(-c2nc3cccc4c3n2CCC4)cn(-c2ccccc2)c1=O` [Example 358, 3-(2-Cyanophenyl)-5-(5,6-dihydro-4H-imidazo[4,5,1-i,j]quinolin-2-yl)-1-phenyl-1,2-dihydropyridin-2-one], 1400 nM corresponded to half-maximal inhibition (IC50).

For the molecule `O=c1c(-c2nc3cccc4c3n2CCC4)cc(-c2ccccn2)cn1-c1ccccc1` [Example 359, 3-(5,6-Dihydro-4H-imidazo[4,5,1-i,j]quinolin-2-yl)-5-(2-pyridyl)-1-phenyl-1,2-dihydropyridin-2-one], the IC50 was 2300 nM.

`O=c1c(-c2nc3ccccc3n2-c2ccccc2)cc(-c2ccccn2)cn1-c1ccccc1` [Example 360, 3-(1-Phenylbenzimidazol-2-yl)-5-(2-pyridyl)-1-phenyl-1,2-dihydropyridin-2-one] showed an IC50 of 3100 nM. `N#Cc1ccccc1-c1cc(-c2nc3cnccc3[nH]2)cn(-c2ccccc2)c1=O` [Example 362, 3-(2-Cyanophenyl)-5-(1H-imidazo[4,5-c]pyridin-2-yl)-1-phenyl-1,2-dihydropyridin-2-one] showed an IC50 of 3700 nM.

The values are drawn from patent publication US6949571B2, “1,2-dihydropyridine compounds, process for preparation of the same and use thereof” (Eisai Co., Ltd., priority 2000, dated 2005).
